Data on three compounds can be found in paper PMC3093627 (Research in Pharmaceutical Sciences, 2010).

For series [1], the system named is morphine brain distribution. The conditions noted are these: rats; cited from earlier work.
In the next series the test system is MDCK II cells. The conditions noted are these: probenecid 10 μM, d-glucose 5 μM, digoxin 5 μM, M6G 100 μg/ml, cyclosporin 10 μM.

With `COc1cc2c(cc1OC)CN(CCc1ccc(NC(=O)c3cccc4c(=O)c5cccc(OC)c5[nH]c34)cc1)CC2` [GF120918], in series [1], the “Reduction of morphine brain distribution” value is recorded as 42%. With `CN1CC[C@]23c4c5ccc(O)c4O[C@H]2[C@@H](O[C@@H]2O[C@H](C(=O)O)[C@@H](O)[C@H](O)[C@H]2O)C=C[C@H]3[C@H]1C5` [M6G, morphine 6 glucoronide], the “Effect on morphine permeability via MDCK II cells” value with MDCK II cells is “no significant effects”. Still for that read-out and setting: as for `C[C@H]1O[C@@H](O[C@H]2[C@@H](O)C[C@H](O[C@H]3[C@@H](O)C[C@H](O[C@H]4CC[C@@]5(C)[C@H](CC[C@@H]6[C@@H]5C[C@@H](O)[C@]5(C)[C@@H](C7=CC(=O)OC7)CC[C@]65O)C4)O[C@@H]3C)O[C@@H]2C)C[C@H](O)[C@@H]1O` [digoxin], the entry is “significant fall”.
